Results as given in patent US20260297081A1, “COMPOUNDS AND METHODS OF TREATING CANCERS” (Cullgen Inc., priority 2023, published 2026).

Key:
Type in all cases: cell-based
Calu-1 cells = test: Anti-proliferation (viability) of NSCLC Calu-1 cells, 3 days (Table 7, FIG. 2B); details: Homo sapiens, 72 h; Calu-1 cells, 3 days, 10-point serial dilution; read-out: GI IC50 in Calu-1
How it was run: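 Viability after a 10-point dilution series of heterobifunctional compounds, with exposure of 6 days for ER+ breast T47D cells and 3 days for NSCLC Calu-1 cells.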

MCF7 cells = test: Anti-proliferation (viability) of MCF7 cells (Table 7, FIG. 2B); details: Homo sapiens, MCF7, MCF7 cells, 3-6 days, 10-point serial dilution; read-out: GI IC50 in MCF-7
CDK4 [1] = biological target: T1, CDK4 (Homo sapiens, UniProt P11802+Q16531); test: HiBiT detection of HiBiT-tagged CDK4 protein level in MCF7 cells, 16 hours (Table 8); parameters: expressed in transfected cells; host or cells: MCF7; details: MCF7 cells stably expressing HiBiT tagged target proteins; for activity at 0.01 µM: 10 nM, read-out: % CDK4 Relative Level (10 nM); for activity at 0.1 µM: 100 nM, read-out: % CDK4 Relative Level (100 nM)
Protocol: HiBiT detection system quantitatively measures total amounts of HiBiT-tagged proteins using a luminescent based method. MCF7 cells stably expressing HiBiT tagged target proteins were treated with heterobifunctional compounds at indicated concentrations for 16 hours, then lysed with Nano-Glo HiBiT Lytic detection reagents.
Target sequence in this assay (P11802 whole entry): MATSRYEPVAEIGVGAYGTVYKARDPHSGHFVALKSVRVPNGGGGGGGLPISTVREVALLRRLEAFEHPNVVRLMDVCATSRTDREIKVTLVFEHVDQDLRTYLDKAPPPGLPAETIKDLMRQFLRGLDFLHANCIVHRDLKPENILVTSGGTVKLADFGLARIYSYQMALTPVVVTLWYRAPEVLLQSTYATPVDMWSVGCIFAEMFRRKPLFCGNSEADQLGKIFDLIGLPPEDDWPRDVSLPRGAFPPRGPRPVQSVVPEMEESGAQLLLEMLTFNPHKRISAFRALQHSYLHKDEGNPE
Target sequence in this assay (P24385 whole entry partner): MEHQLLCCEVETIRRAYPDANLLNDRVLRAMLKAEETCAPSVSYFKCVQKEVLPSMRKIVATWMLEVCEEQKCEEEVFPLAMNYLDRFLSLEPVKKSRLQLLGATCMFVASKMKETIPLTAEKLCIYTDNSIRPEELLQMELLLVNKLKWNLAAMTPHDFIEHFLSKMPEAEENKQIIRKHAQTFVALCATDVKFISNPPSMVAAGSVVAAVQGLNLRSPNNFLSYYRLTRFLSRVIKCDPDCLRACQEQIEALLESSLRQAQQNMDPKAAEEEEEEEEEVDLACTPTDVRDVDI
Target sequence in this assay (Q16531 2-1140 limits assumed): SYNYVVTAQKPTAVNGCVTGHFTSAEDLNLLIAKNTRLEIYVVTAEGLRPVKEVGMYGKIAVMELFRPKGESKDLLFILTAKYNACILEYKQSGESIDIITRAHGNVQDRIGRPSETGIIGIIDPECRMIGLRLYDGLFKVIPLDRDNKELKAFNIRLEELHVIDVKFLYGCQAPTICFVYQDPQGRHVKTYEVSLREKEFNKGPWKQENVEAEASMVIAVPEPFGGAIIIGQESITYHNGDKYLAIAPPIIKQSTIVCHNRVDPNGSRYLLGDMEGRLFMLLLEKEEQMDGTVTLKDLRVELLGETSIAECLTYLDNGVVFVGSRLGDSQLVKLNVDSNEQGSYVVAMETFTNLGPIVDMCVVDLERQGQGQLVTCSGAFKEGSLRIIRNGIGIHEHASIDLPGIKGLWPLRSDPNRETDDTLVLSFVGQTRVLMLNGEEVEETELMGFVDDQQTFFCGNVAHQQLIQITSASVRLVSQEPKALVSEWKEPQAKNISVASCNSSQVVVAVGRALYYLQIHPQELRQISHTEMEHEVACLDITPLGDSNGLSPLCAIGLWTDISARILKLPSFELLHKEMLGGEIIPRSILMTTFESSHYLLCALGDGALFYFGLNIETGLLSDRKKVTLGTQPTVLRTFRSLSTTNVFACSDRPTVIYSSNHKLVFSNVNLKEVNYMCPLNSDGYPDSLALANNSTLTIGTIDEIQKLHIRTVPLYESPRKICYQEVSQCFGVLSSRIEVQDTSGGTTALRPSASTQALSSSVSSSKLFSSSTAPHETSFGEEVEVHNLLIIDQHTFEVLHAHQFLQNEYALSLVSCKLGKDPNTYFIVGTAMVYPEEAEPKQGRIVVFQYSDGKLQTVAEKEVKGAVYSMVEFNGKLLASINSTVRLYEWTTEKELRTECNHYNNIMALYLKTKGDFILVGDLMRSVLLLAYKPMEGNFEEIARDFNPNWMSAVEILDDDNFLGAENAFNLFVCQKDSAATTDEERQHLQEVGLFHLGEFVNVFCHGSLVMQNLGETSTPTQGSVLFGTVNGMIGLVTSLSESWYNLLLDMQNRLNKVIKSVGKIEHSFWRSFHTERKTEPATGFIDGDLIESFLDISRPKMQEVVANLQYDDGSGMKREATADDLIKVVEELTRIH

CDK4 [2] = biological target: T1, CDK4; test: CDK4 percentage degradation in Calu-1 cells (Table 6); parameters: Cells that express cyclin D1-3 and CDK4/6 proteins were treated with heterobifunctional compounds; endogenous in cells; host or cells: Calu-1; details: 16 hours
How it was run: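 Calu-1 cells exposed to heterobifunctional compounds at 40 nM or 200 nM for 16 h. Cyclin D1 and CDK4 levels measured by Western blot of RIPA lysates (BCA-normalised loading), bands quantified by densitometry and expressed as percentage degradation.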
Target sequence in this assay (P11802 2-303 limits assumed): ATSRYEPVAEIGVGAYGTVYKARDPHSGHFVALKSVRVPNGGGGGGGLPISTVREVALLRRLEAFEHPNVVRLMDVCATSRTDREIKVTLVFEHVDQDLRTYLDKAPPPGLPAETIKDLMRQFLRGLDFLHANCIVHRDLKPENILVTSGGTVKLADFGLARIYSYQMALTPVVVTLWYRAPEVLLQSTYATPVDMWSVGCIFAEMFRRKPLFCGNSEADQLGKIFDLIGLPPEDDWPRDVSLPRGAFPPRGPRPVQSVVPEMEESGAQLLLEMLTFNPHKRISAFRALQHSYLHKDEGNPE
Target sequence in this assay (P24385 whole entry partner): as the sequence (P24385 whole entry partner) above
Target sequence in this assay (Q16531 2-1140 limits assumed): as the sequence (Q16531 2-1140 limits assumed) above

Row | IC50 (Calu-1 cells) | IC50 (MCF7 cells) | activity at 0.01 µM (CDK4 [1]) | activity at 0.1 µM (CDK4 [1]) | inhibition at 0.04 µM (CDK4 [2]; 40 nM) | inhibition at 0.2 µM (CDK4 [2]; 200 nM) | Compound
1 | ≤ 10 nM | < 50 nM | 55 to 85% | 55 to 85% | < 30% | < 30% | CC(=O)c1c(C)c2cnc(Nc3ccc(N4CCN(CC(=O)NCC5CC(Nc6nc(NC(C)C)ccc6C(=O)Nc6cc(C)on6)C5)CC4)cn3)nc2n(C2CCCC2)c1=O (centres unmarked) [CPD-282, 2-((3-((2-(4-(6-((6-acetyl-8-cyclopentyl-5-methyl-7-oxo-7,8-dihydropyrido[2,3-d]pyrimidin-2-yl)amino)pyridin-3-yl)piperazin-1-yl)acetamido)methyl)cyclobutyl)amino)-6-(isopropylamino)-N-(5-methylisoxazol-3-yl)nicotinamide]
2 | ≤ 10 nM | < 50 nM | 55 to 85% | 55 to 85% | – | – | [2H]C([2H])([2H])Nc1ccc(C(=O)Nc2cccc(OC)n2)c(NC2CC3(C2)CN(C(=O)CC(N2CCN(c4ccc(Nc5ncc6c(C)c(C(C)=O)c(=O)n(C7CCCC7)c6n5)nc4)CC2)C(F)(F)F)C3)n1 (centres unmarked) [CPD-531, 2-((2-(3-(4-(6-((6-acetyl-8-cyclopentyl-5-methyl-7-oxo-7,8-dihydropyrido[2,3-d]pyrimidin-2-yl)amino)pyridin-3-yl)piperazin-1-yl)-4,4,4-trifluorobutanoyl)-2-azaspiro[3.3]heptan-6-yl)amino)-N-(6-methoxypyridin-2-yl)-6-((methyl-d3)amino)nicotinamide]
3 | ≤ 10 nM | < 50 nM | 55 to 85% | 55 to 85% | – | – | COc1cccc(NC(=O)c2ccc(NC(C)C)nc2NC2CC3(C2)CN(C(=O)CN2CCC4(CCN(c5ccc(Nc6ncc7c(C)c(C(C)=O)c(=O)n(C8CCCC8)c7n6)nc5)C4)C2)C3)n1 (centres unmarked) [CPD-532, 2-((2-(2-(7-(6-((6-acetyl-8-cyclopentyl-5-methyl-7-oxo-7,8-dihydropyrido[2,3-d]pyrimidin-2-yl)amino)pyridin-3-yl)-2,7-diazaspiro[4.4]nonan-2-yl)acetyl)-2-azaspiro[3.3]heptan-6-yl)amino)-6-(isopropylamino)-N-(6-methoxypyridin-2-yl)nicotinamide]
4 | ≤ 10 nM | < 50 nM | > 85% | 55 to 85% | – | – | COC1(C(=O)N2CCC(N3CCN(c4ccc(Nc5ncc6c(C)c(C(C)=O)c(=O)n(C7CCCC7)c6n5)nc4)CC3)C2)CCC(Nc2nc(NC(C)C)ccc2C(=O)Nc2ccc(N(C)C)nn2)CC1 (centres unmarked) [CPD-536, 2-((4-(3-(4-(6-((6-acetyl-8-cyclopentyl-5-methyl-7-oxo-7,8-dihydropyrido[2,3-d]pyrimidin-2-yl)amino)pyridin-3-yl)piperazin-1-yl)pyrrolidine-1-carbonyl)-4-methoxycyclohexyl)amino)-N-(6-(dimethylamino)pyridazin-3-yl)-6-(isopropylamino)nicotinamide]
5 | ≤ 10 nM | < 50 nM | > 85% | > 85% | – | – | CC(=O)c1c(C)c2cnc(Nc3ccc(N4CCN(C5CCN(C(=O)CC67CC(Nc8nc(NC(C)C)ccc8C(=O)Nc8ccc(N(C)C)nn8)(C6)C7)C5)CC4)cn3)nc2n(C2CCCC2)c1=O (centres unmarked) [CPD-537, 2-((3-(2-(3-(4-(6-((6-acetyl-8-cyclopentyl-5-methyl-7-oxo-7,8-dihydropyrido[2,3-d]pyrimidin-2-yl)amino)pyridin-3-yl)piperazin-1-yl)pyrrolidin-1-yl)-2-oxoethyl)bicyclo[1.1.1]pentan-1-yl)amino)-N-(6-(dimethylamino)pyridazin-3-yl)-6-(isopropylamino)nicotinamide]
6 | ≤ 10 nM | < 50 nM | > 85% | > 85% | – | – | CC(=O)c1c(C)c2cnc(Nc3ccc(CN4CCN(C(C)C(=O)N5CCC6(CCC(Nc7nc(NC(C)C)ccc7C(=O)Nc7ccc(N(C)C)nn7)C6)C5)CC4)cn3)nc2n(C2CCCC2)c1=O (centres unmarked) [CPD-550, 2-((2-(2-(4-((6-((6-acetyl-8-cyclopentyl-5-methyl-7-oxo-7,8-dihydropyrido[2,3-d]pyrimidin-2-yl)amino)pyridin-3-yl)methyl)piperazin-1-yl)propanoyl)-2-azaspiro[4.4]nonan-7-yl)amino)-N-(6-(dimethylamino)pyridazin-3-yl)-6-(isopropylamino)nicotinamide]
7 | ≤ 10 nM | < 50 nM | > 85% | 55 to 85% | – | – | CC(=O)c1c(C)c2cnc(Nc3ccc(C(C)N4CCN(CC(=O)N5CCC6(CCC(Nc7nc(NC(C)C)ccc7C(=O)Nc7ccc(N(C)C)nn7)C6)C5)CC4)cn3)nc2n(C2CCCC2)c1=O (centres unmarked) [CPD-551, 2-((2-(2-(4-(1-(6-((6-acetyl-8-cyclopentyl-5-methyl-7-oxo-7,8-dihydropyrido[2,3-d]pyrimidin-2-yl)amino)pyridin-3-yl)ethyl)piperazin-1-yl)acetyl)-2-azaspiro[4.4]nonan-7-yl)amino)-N-(6-(dimethylamino)pyridazin-3-yl)-6-(isopropylamino)nicotinamide]
8 | ≤ 10 nM | < 50 nM | > 85% | 55 to 85% | – | – | CC(=O)c1c(C)c2cnc(Nc3ccc(N4CCC5(CCN(CC(=O)N6CC7(CC(Nc8nc(NC(C)C)ccc8C(=O)Nc8cn9c(n8)CCC9)C7)C6)C5)C4)cn3)nc2n(C2CCCC2)c1=O (centres unmarked) [CPD-565, 2-((2-(2-(7-(6-((6-acetyl-8-cyclopentyl-5-methyl-7-oxo-7,8-dihydropyrido[2,3-d]pyrimidin-2-yl)amino)pyridin-3-yl)-2,7-diazaspiro[4.4]nonan-2-yl)acetyl)-2-azaspiro[3.3]heptan-6-yl)amino)-N-(6,7-dihydro-5H-pyrrolo[1,2-a]imidazol-2-yl)-6-(isopropylamino)nicotinamide]
9 | ≤ 10 nM | < 50 nM | > 85% | 55 to 85% | – | – | CC(=O)c1c(C)c2cnc(Nc3ccc(CN4CCN(CC(=O)N5CCC6(CC(Nc7nc(NC(C)C)ccc7C(=O)Nc7ccc(N(C)C)nn7)C6)C5)CC4)cn3)nc2n(C2CCCC2)c1=O (centres unmarked) [CPD-570, 2-((6-(2-(4-((6-((6-acetyl-8-cyclopentyl-5-methyl-7-oxo-7,8-dihydropyrido[2,3-d]pyrimidin-2-yl)amino)pyridin-3-yl)methyl)piperazin-1-yl)acetyl)-6-azaspiro[3.4]octan-2-yl)amino)-N-(6-(dimethylamino)pyridazin-3-yl)-6-(isopropylamino)nicotinamide]
10 | ≤ 10 nM | < 50 nM | 55 to 85% | 55 to 85% | – | – | CC(=O)c1c(C)c2cnc(Nc3ccc(CN4CCN(CC(=O)NC5CC6(C5)CC(Nc5nc(NC(C)C)ccc5C(=O)Nc5cn(C)c(C7CC7)n5)C6)CC4)cn3)nc2n(C2CCCC2)c1=O (centres unmarked) [CPD-589, 2-((6-(2-(4-((6-((6-acetyl-8-cyclopentyl-5-methyl-7-oxo-7,8-dihydropyrido[2,3-d]pyrimidin-2-yl)amino)pyridin-3-yl)methyl)piperazin-1-yl)acetamido)spiro[3.3]heptan-2-yl)amino)-N-(2-cyclopropyl-1-methyl-1H-imidazol-4-yl)-6-(isopropylamino)nicotinamide]
11 | ≤ 10 nM | < 50 nM | 55 to 85% | 55 to 85% | – | – | CC(=O)c1c(C)c2cnc(Nc3ccc(N4CCN(C5CCN(C(=O)C67CC(Nc8nc(NC(C)C)ccc8C(=O)Nc8cc9n(n8)CCC9)(C6)C7)C5)CC4)cn3)nc2n(C2CCCC2)c1=O (centres unmarked) [CPD-592, 2-((3-(3-(4-(6-((6-acetyl-8-cyclopentyl-5-methyl-7-oxo-7,8-dihydropyrido[2,3-d]pyrimidin-2-yl)amino)pyridin-3-yl)piperazin-1-yl)pyrrolidine-1-carbonyl)bicyclo[1.1.1]pentan-1-yl)amino)-N-(5,6-dihydro-4H-pyrrolo[1,2-b]pyrazol-2-yl)-6-(isopropylamino)nicotinamide]
12 | ≥ 50 nM | > 100 nM | > 85% | > 85% | – | – | CNc1ccc(C(=O)Nc2ccc(N(C)C)nn2)c(NCCC(=O)N2CCN(c3ccc(Nc4ncc5cc(C(=O)N(C)C)n(C6CCCC6)c5n4)nc3)CC2)n1 [CPD-616, 7-cyclopentyl-2-((5-(4-(3-((3-((6-(dimethylamino)pyridazin-3-yl)carbamoyl)-6-(methylamino)pyridin-2-yl)amino)propanoyl)piperazin-1-yl)pyridin-2-yl)amino)-N,N-dimethyl-7H-pyrrolo[2,3-d]pyrimidine-6-carboxamide]
